Results published in patent US10376499B2, “Combination therapy for treatment of resistant bacterial infections” (priority 2014, dated 2019).
Values after ≈ are worked out from the molar mass of the structure shown.

Columns and labels:
Enterobacteriaceae = test: organism not typed; assay type: cell-based
A. baumannii [1] = test: Neutropenic mouse thigh and lung infection models; conditions: neutropenic CD-1 mice, subcutaneous q3h, sulbactam+compound 1 at 4:1 ratio, 24 h, isolate containing AmpC, OXA-66, OXA-72, TEM-1, FIG. 4
Enterobacter cloacae = test: MIC, recent Enterobacteriaceae clinical isolates: Enterobacter cloacae (Examples 7, 11); assay type: cell-based
A. baumannii [2] = test: MIC by broth microdilution (CLSI), panel of 60 A. baumannii clinical isolates (Example 1); conditions: Acinetobacter baumannii

With `CC1(C)[C@H](C(=O)O)N2C(=O)C[C@H]2S1(=O)=O` [Sulbactam, (2S,5R)-3,3-dimethyl-7-oxo-4-thia-1-azabicyclo[3.2.0]heptane-2-carboxylic acid 4,4-dioxide] the MIC50 (Enterobacteriaceae) was 64 µg/mL (≈ 274 µM), the MIC90 (Enterobacteriaceae) was 256 µg/mL (≈ 1100 µM) and the “efficacy (mean delta log CFU)” value (A. baumannii [1]) was “failed to show efficacy”. It also gave an MIC50 (Enterobacter cloacae) of 64 µg/mL (≈ 274 µM), an MIC (Enterobacter cloacae; Enterobacter cloacae ARC4438, AmpC+) of 128 µg/mL (≈ 549 µM) and an MIC (Enterobacter cloacae; Enterobacter cloacae ARC4444, AmpC+, MIR-8[I175L]) of 64 µg/mL (≈ 274 µM). For the same compound, the MIC (Enterobacter cloacae; Enterobacter cloacae ARC4458, AmpC+, ACT-2[V312M]) was 64 µg/mL (≈ 274 µM), the MIC (Enterobacter cloacae; Enterobacter cloacae ARC4473, SHV-5+, AmpC+, DHA-1+, TEM-1+) was 128 µg/mL (≈ 549 µM) and the MIC (Enterobacter cloacae; Enterobacter cloacae ARC4489, AmpC+) was 128 µg/mL (≈ 549 µM). The MIC (Enterobacter cloacae; Enterobacter cloacae ARC4492, AmpC+) was 256 µg/mL (≈ 1100 µM), the MIC90 (Enterobacter cloacae; N 10) was 128 µg/mL (≈ 549 µM) and the MIC range (Enterobacter cloacae; N 10) was 64 to 256 µg/mL. For the same compound, the MIC50 (A. baumannii [2]) was 16 µg/mL (≈ 68.6 µM), the MIC90 (A. baumannii [2]) was 32 µg/mL (≈ 137 µM) and the MIC (A. baumannii [2]; strain ARC593, OXA-98) was 1 µg/mL (≈ 4.29 µM). It also gave an MIC (A. baumannii [2]; strain ARC2058, OXA-95) of 2 µg/mL (≈ 8.57 µM), an MIC (A. baumannii [2]; strain ARC2461, OXA-66, TEM-1) of 16 µg/mL (≈ 68.6 µM) and an MIC (A. baumannii [2]; strain ARC2462, TEM-1, OXA-66) of 16 µg/mL (≈ 68.6 µM). For the same compound, the MIC (A. baumannii [2]; strain ARC2598, OXA*, TEM-1, OXA-113) was 16 µg/mL (≈ 68.6 µM), the MIC (A. baumannii [2]; strain ARC2635, OXA-65, OXA-40, TEM-1) was 32 µg/mL (≈ 137 µM) and the MIC (A. baumannii [2]; strain ARC2636, OXA-65, OXA-40, TEM-1) was 32 µg/mL (≈ 137 µM). The MIC (A. baumannii [2]; strain ARC2675, SHV-5, OXA-113) was 16 µg/mL (≈ 68.6 µM), the MIC (A. baumannii [2]; strain ARC2681, OXA-40, TEM-1, OXA-132) was 16 µg/mL (≈ 68.6 µM) and the MIC (A. baumannii [2]; strain ARC2682, SHV-5, OXA-113) was 4 µg/mL (≈ 17.1 µM). For the same compound, the MIC (A. baumannii [2]; strain ARC2778, OXA-40, TEM-1, OXA-65) was 16 µg/mL (≈ 68.6 µM), the MIC (A. baumannii [2]; strain ARC2779 (A. baumannii/calcoaceticus complex), OXA-2, VIM-2) was 16 µg/mL (≈ 68.6 µM) and the MIC (A. baumannii [2]; strain ARC2780 (A. baumannii/calcoaceticus complex), OXA*, OXA-2, IMP-1) was 4 µg/mL (≈ 17.1 µM). It also gave an MIC (A. baumannii [2]; strain ARC2782, OXA-66, OXA-23, TEM-1, PER-1) of 32 µg/mL (≈ 137 µM), an MIC (A. baumannii [2]; strain ARC3484, TEM-1, OXA-23, OXA-64) of 16 µg/mL (≈ 68.6 µM) and an MIC (A. baumannii [2]; strain ARC3486, OXA-72, OXA-66, TEM-1) of 32 µg/mL (≈ 137 µM). The MIC (A. baumannii [2]; strain ARC3487, OXA-20, OXA-58, OXA-66) was 4 µg/mL (≈ 17.1 µM), the MIC (A. baumannii [2]; strain ARC3488, OXA*, OXA-68) was 16 µg/mL (≈ 68.6 µM) and the MIC (A. baumannii [2]; strain ARC3489, OXA*, OXA-68) was 2 µg/mL (≈ 8.57 µM). The MIC (A. baumannii [2]; strain ARC3490, TEM-1+, PSE-2, OXA-69) was 32 µg/mL (≈ 137 µM), the MIC (A. baumannii [2]; strain ARC3491 (A. baumannii/calcoaceticus complex), OXA-215) was 0.5 µg/mL (≈ 2.14 µM) and the MIC (A. baumannii [2]; strain ARC3492, OXA-40, OXA-132, TEM-1) was 16 µg/mL (≈ 68.6 µM). The MIC (A. baumannii [2]; strain ARC3493, OXA-40, OXA-66) was 64 µg/mL (≈ 274 µM), the MIC (A. baumannii [2]; strain ARC3494, OXA-65) was 4 µg/mL (≈ 17.1 µM) and the MIC (A. baumannii [2]; strain ARC3495, OXA-40, OXA-109) was 32 µg/mL (≈ 137 µM). The MIC (A. baumannii [2]; strain ARC3513, TEM-1, OXA-23, OXA-65) was 16 µg/mL (≈ 68.6 µM), the MIC (A. baumannii [2]; strain ARC3657, OXA-130) was 32 µg/mL (≈ 137 µM) and the MIC (A. baumannii [2]; strain ARC3658, OXA-66, PER-1, TEM-1, OXA-23) was 32 µg/mL (≈ 137 µM). It also gave an MIC (A. baumannii [2]; strain ARC3659, OXA-23, OXA*) of 4 µg/mL (≈ 17.1 µM), an MIC (A. baumannii [2]; strain ARC3882, OXA-23, NDM-1, OXA-10*) of over 64 µg/mL and an MIC (A. baumannii [2]; strain ARC5073, OXA-23, TEM-1, OXA-64, PER-1) of 16 µg/mL (≈ 68.6 µM). It also gave an MIC (A. baumannii [2]; strain ARC5074, GES*, TEM-1, OXA-51) of 64 µg/mL (≈ 274 µM), an MIC (A. baumannii [2]; strain ARC5075, SHV-5, OXA-113) of 16 µg/mL (≈ 68.6 µM) and an MIC (A. baumannii [2]; strain ARC5076, TEM-1, OXA-23, OXA-66) of 32 µg/mL (≈ 137 µM). The MIC (A. baumannii [2]; strain ARC5077, OXA*, OXA-72) was 32 µg/mL (≈ 137 µM), the MIC (A. baumannii [2]; strain ARC5079, OXA-72, OXA-65) was 32 µg/mL (≈ 137 µM) and the MIC (A. baumannii [2]; strain ARC5080, OXA-71, OXA-40) was 32 µg/mL (≈ 137 µM). The MIC (A. baumannii [2]; strain ARC5082, OXA-66, OXA-23) was 64 µg/mL (≈ 274 µM), the MIC (A. baumannii [2]; strain ARC5083, OXA-66, OXA-23) was 16 µg/mL (≈ 68.6 µM) and the MIC (A. baumannii [2]; strain ARC5084, IMP-4(B), OXA-58, OXA-65) was 4 µg/mL (≈ 17.1 µM). For the same compound, the MIC (A. baumannii [2]; strain ARC5085, OXA*, TEM-1) was 32 µg/mL (≈ 137 µM).
